The values below come from ChEMBL document CHEMBL2331362, “Identification of N-acyl 4-(5-pyrimidine-2,4-dionyl)phenylalanine derivatives and their orally active prodrug esters as dual-acting alpha4-beta1 and alpha4-beta7 receptor antagonists” (Bioorg Med Chem Lett, 2013).

pIC50: −log10 of the molar value.

The target in data set [1] is Integrin alpha-4/beta-7 (Homo sapiens) (UniProt P13612+P26010). Description: Inhibition of human MAdCAM1 binding to integrin alpha4beta7 receptor in human RPMI 8866 cells labeled with Calcein AM relative to (S)-2-(2-chloro-6-methylbenzamido)-3-(4-(2,6-dichlorobenzamido)phenyl)propanoic acid. The format is cell-based.
Another data set has as its target T1, Integrin alpha-4/beta-7 (Homo sapiens, UniProt P13612+P26010).
T1 sequence (P13612 whole entry): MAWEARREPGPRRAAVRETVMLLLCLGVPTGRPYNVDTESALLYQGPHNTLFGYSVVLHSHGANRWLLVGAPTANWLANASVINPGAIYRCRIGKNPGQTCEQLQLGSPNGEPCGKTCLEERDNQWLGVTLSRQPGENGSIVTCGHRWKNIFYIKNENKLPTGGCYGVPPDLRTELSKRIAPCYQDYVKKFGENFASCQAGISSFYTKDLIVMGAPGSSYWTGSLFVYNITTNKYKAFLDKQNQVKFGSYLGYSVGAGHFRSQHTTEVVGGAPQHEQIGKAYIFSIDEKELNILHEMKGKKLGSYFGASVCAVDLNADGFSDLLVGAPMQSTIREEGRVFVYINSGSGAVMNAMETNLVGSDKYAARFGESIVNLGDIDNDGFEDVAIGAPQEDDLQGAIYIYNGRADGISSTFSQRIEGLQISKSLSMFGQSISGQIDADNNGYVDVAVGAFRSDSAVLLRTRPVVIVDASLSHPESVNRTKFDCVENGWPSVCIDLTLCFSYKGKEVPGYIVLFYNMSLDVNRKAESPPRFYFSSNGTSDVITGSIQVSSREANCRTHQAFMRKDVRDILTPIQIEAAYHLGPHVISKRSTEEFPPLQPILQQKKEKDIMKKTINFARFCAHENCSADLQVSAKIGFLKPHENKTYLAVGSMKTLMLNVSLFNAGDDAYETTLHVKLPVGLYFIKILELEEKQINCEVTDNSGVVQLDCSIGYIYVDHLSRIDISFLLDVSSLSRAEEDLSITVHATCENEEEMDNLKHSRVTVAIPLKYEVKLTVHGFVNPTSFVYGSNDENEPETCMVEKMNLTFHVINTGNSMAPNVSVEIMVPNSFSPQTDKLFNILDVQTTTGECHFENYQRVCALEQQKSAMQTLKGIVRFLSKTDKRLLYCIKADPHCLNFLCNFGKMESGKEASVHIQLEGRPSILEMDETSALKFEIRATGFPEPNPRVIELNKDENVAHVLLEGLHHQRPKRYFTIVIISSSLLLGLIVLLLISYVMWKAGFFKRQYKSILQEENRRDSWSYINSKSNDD
T1 sequence (P26010 whole entry): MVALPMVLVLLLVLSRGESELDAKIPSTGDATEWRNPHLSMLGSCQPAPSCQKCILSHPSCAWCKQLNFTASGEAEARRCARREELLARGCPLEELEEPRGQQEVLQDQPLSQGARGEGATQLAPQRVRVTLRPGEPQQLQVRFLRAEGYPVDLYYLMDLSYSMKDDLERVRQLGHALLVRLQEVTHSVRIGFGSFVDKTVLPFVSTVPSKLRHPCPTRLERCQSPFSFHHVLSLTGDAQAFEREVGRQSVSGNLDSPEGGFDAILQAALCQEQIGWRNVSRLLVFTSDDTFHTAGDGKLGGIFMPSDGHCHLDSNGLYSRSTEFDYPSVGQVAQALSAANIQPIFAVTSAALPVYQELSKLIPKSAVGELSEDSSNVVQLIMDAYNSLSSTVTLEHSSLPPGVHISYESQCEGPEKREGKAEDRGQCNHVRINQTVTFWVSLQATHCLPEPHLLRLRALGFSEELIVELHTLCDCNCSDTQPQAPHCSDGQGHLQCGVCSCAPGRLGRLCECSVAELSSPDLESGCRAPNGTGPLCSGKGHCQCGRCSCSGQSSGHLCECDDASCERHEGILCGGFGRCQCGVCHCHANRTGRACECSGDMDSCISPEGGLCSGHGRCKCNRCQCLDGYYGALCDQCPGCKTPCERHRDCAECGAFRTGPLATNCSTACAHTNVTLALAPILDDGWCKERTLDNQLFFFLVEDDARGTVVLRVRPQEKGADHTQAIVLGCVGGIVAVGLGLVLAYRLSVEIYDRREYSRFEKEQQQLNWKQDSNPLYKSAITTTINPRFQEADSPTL
As to the kind of experiment: Inhibition of human MAdCAM1 binding to integrin alpha4beta7 receptor in human RPMI 8866 cells labeled with Calcein AM. The format is cell-based.

The target in data set [2] is T2, Integrin alpha-4/beta-1 (Homo sapiens, UniProt P05556+P13612). Description: Inhibition of human VCAM1 binding to integrin alpha4beta1 receptor in human Ramos cells labeled with Calcein AM relative to (S)-2-(2-chloro-6-methylbenzamido)-3-(4-(2,6-dichlorobenzamido)phenyl)propanoic acid. It counts as cell-based.
T2 sequence (P05556 whole entry, one chain of several): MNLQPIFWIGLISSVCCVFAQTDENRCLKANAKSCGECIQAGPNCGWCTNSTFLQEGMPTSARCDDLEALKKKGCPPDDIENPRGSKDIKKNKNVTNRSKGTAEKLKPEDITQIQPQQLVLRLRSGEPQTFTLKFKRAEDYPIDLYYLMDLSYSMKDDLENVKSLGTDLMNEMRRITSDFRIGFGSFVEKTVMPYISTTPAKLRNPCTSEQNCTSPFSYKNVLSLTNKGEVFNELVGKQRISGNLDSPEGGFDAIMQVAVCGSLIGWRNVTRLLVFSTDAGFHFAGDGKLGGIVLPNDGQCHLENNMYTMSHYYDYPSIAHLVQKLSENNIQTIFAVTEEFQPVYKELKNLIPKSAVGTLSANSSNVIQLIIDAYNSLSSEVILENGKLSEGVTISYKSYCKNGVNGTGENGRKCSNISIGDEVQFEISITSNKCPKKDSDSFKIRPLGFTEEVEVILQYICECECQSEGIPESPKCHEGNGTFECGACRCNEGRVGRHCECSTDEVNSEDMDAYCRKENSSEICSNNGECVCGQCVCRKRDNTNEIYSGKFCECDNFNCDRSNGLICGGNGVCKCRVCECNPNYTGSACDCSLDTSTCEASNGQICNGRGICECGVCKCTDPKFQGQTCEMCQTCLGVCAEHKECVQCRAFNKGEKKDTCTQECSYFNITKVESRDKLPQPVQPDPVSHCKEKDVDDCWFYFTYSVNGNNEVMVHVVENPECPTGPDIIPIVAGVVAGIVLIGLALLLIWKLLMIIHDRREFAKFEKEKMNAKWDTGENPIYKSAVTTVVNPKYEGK
Data set [3] concerns the target T2, Integrin alpha-4/beta-1. As to the kind of experiment: Inhibition of human VCAM1 binding to integrin alpha4beta1 receptor in human Ramos cells labeled with Calcein AM. The format is cell-based.
Data set [4] in a line: Distribution coefficient, log D of the compound. The format is physicochemical. The following applies: octanol/water.
Data set [5] is described as follows: Apparent permeability across human Caco2 cells. It counts as ADME, cell-based. As to conditions: Caco-2.
Data set [6] in a line: Oral bioavailability in rat. It counts as ADME, organism-based. As to conditions: in vivo.

Take `CCn1c(C)c(-c2ccc(C[C@H](NC(=O)C3(CCOC)CCCC3)C(=O)O)cc2)c(=O)n(CC)c1=O`: the Ratio IC50 in data set [1] is 0.46; on Integrin alpha-4/beta-1 [2], 0.29. The pIC50 on Integrin alpha-4/beta-7 is 6.25; at Integrin alpha-4/beta-1 [3], 6.42.
On the same counts, the results for `COCCC1(C(=O)N[C@@H](Cc2ccc(-c3c(C)n(C)c(=O)n(C)c3=O)cc2)C(=O)O)CCCC1` are 1, 0.49, 6.49 and 6.54.
On the same counts, the results for `Cc1cccc(Cl)c1C(=O)N[C@@H](Cc1ccc(-c2c(C(F)(F)F)n(C)c(=O)n(C)c2=O)cc1)C(=O)O` are 2.4, 0.1, 6.78 and 6.91.
On to `CCn1c(C)c(-c2ccc(C[C@H](NC(=O)c3c(Cl)cccc3Cl)C(=O)O)cc2)c(=O)n(CC)c1=O`, for which the Ratio IC50 in data set [1] was 4.8; on Integrin alpha-4/beta-1 [2] it was 0.8. Further, the negative logarithm of the IC50 (pIC50) at Integrin alpha-4/beta-7 is 6.91; at Integrin alpha-4/beta-1 [3], 7.20.
As to `COCCC1(C(=O)N[C@@H](Cc2ccc(-c3cn(C)c(=O)n(C)c3=O)c(C)c2)C(=O)O)CCCC1`, at Integrin alpha-4/beta-1 [2], the Ratio IC50 is 0.8. For the same molecule, the pIC50 on Integrin alpha-4/beta-1 [3] was 7.19.
With `Cc1c(-c2ccc(C[C@H](NC(=O)c3c(Cl)cccc3Cl)C(=O)O)cc2)c(=O)n(C)c(=O)n1C`, the Ratio IC50 is 16 in data set [1] and 6.3 on Integrin alpha-4/beta-1 [2]. Besides, the pIC50 was 7.46 at Integrin alpha-4/beta-7 and 8.10 on Integrin alpha-4/beta-1 [3]. This molecule returned a logD in data set [4] of -2.02. In data set [5], the Papp is 1.33 ×10⁻⁶ cm/s. The molecule further came in with a bioavailability in data set [6] of 1.7%.
With `Cc1cc(C[C@H](NC(=O)c2c(Cl)cccc2Cl)C(=O)O)ccc1-c1cn(C)c(=O)n(C)c1=O`, the Ratio IC50 was 1.9 in data set [1] and 0.68 on Integrin alpha-4/beta-1 [2]. Also, the pIC50 on Integrin alpha-4/beta-7 was 6.66; on Integrin alpha-4/beta-1 [3] it was 7.25.
The matching figures for `CCn1c(C)c(-c2ccc(C[C@H](NC(=O)c3c(C)cccc3Cl)C(=O)O)cc2)c(=O)n(CC)c1=O`: 1.7, 0.37, 6.79 and 6.53.
`CCOC(=O)[C@H](Cc1ccc(-c2c(C)n(C)c(=O)n(C)c2=O)cc1)NC(=O)c1c(C)cccc1Cl` returned a logD in data set [4] of 2.24. The Papp in data set [5] is 34.7 ×10⁻⁶ cm/s. The same molecule showed a bioavailability in data set [6] of 25%.
On to `Cc1cc(C[C@H](NC(=O)c2c(Cl)cccc2Cl)C(=O)O)ccc1-c1c(C)n(C)c(=O)n(C)c1=O`, for which the Ratio IC50 in data set [1] was 3.6; on Integrin alpha-4/beta-1 [2], 1.1. For the same molecule, the pIC50 is 6.77 on Integrin alpha-4/beta-7 and 8.00 at Integrin alpha-4/beta-1 [3].
For the molecule `Cn1c(C(F)(F)F)c(-c2ccc(C[C@H](NC(=O)c3c(Cl)cccc3Cl)C(=O)O)cc2)c(=O)n(C)c1=O`, the results for the Ratio IC50 (in data set [1]; on Integrin alpha-4/beta-1 [2]) were 1.3 and 0.46, respectively. Also, the pIC50 at Integrin alpha-4/beta-7 was 6.66; at Integrin alpha-4/beta-1 [3], 6.71.
Take `COc1cccc(Br)c1C(=O)N[C@@H](Cc1ccc(-c2cn(C)c(=O)n(C)c2=O)c(C)c1)C(=O)O`: the Ratio IC50 on Integrin alpha-4/beta-1 [2] is 0.35. Further, the pIC50 at Integrin alpha-4/beta-1 [3] was 6.59.
On to `Cc1c(-c2ccc(C[C@H](NC(=O)c3c(C(C)C)cccc3C(C)C)C(=O)O)cc2)c(=O)n(C)c(=O)n1C`, for which the Ratio IC50 in data set [1] is 0.15; at Integrin alpha-4/beta-1 [2], 0.04. In addition, the pIC50 is 5.71 at Integrin alpha-4/beta-7 and 5.84 at Integrin alpha-4/beta-1 [3].
For the molecule `CCc1cccc(Cl)c1C(=O)N[C@@H](Cc1ccc(-c2c(C)n(C)c(=O)n(C)c2=O)cc1)C(=O)O`, the Ratio IC50 in data set [1] is 2.3; at Integrin alpha-4/beta-1 [2] it was 0.53. Further, the pIC50 on Integrin alpha-4/beta-7 was 6.82; at Integrin alpha-4/beta-1 [3], 7.06.
On to `Cc1cccc(Cl)c1C(=O)N[C@@H](Cc1ccc(-c2c(C)n(C)c(=O)n(C)c2=O)cc1)C(=O)O`, for which the Ratio IC50 was 6.1 in data set [1] and 2.1 at Integrin alpha-4/beta-1 [2]. For the same molecule, the pIC50 on Integrin alpha-4/beta-7 is 7.24; on Integrin alpha-4/beta-1 [3], 7.46. In data set [4], the logD is -1.76. The Papp in data set [5] worked out at 2.9 ×10⁻⁶ cm/s. In addition, the bioavailability in data set [6] came out at 10%.
Regarding `Cc1cc(C[C@H](NC(=O)c2c(C)cccc2Cl)C(=O)O)ccc1-c1c(C)n(C)c(=O)n(C)c1=O`, the Ratio IC50 is 1 in data set [1] and 0.14 at Integrin alpha-4/beta-1 [2]. In addition, the pIC50 on Integrin alpha-4/beta-7 is 6.60; at Integrin alpha-4/beta-1 [3] it was 6.61.
Take `Cc1c(-c2ccc(C[C@H](NC(=O)c3c(Cl)cccc3C(C)C)C(=O)O)cc2)c(=O)n(C)c(=O)n1C`: the Ratio IC50 was 1 in data set [1] and 0.13 at Integrin alpha-4/beta-1 [2]. Further, the figures for the pIC50 at Integrin alpha-4/beta-7 and at Integrin alpha-4/beta-1 [3] were 6.25 and 6.67, respectively.
Turning to `Cc1cc(C[C@H](NC(=O)c2c(C)cccc2Br)C(=O)O)ccc1-c1cn(C)c(=O)n(C)c1=O`, the Ratio IC50 on Integrin alpha-4/beta-1 [2] is 2. Moreover, the pIC50 at Integrin alpha-4/beta-1 [3] is 7.60.
In data set [4], `CCOC(=O)[C@H](Cc1ccc(-c2c(C)n(C)c(=O)n(C)c2=O)cc1)NC(=O)c1c(Cl)cccc1Cl` gave a logD of 2.01. The Papp in data set [5] was determined as 18.3 ×10⁻⁶ cm/s. In data set [6], this molecule returned a bioavailability of 6%.
The matching figures for `CC(=O)OC(C)OC(=O)[C@H](Cc1ccc(-c2c(C)n(C)c(=O)n(C)c2=O)cc1)NC(=O)c1c(F)cccc1F` (some centres undefined): 1.61, 12 ×10⁻⁶ cm/s and 30%.
Regarding `Cc1cc(C[C@H](NC(=O)c2c(C)cccc2Cl)C(=O)O)ccc1-c1cn(C)c(=O)n(C)c1=O`, at Integrin alpha-4/beta-1 [2], the Ratio IC50 was 1. The pIC50 on Integrin alpha-4/beta-1 [3] is 7.09.

What is called pIC50 is the negative decadic logarithm of the IC50, by convention in mol/L. Usually logD stands for lipophilicity at a set pH, counting ionised and neutral species. Read a low logD as a more hydrophilic compound. A word on the Papp: it is the rate of passage across a membrane or cell layer, normalised by area and donor concentration. For orientation: bioavailability means the share of a dose that reaches the circulation, judged against a reference dose that is usually intravenous. Read a low bioavailability as little systemic uptake.
